Laboratory results published in publication PMC3830869, “Total Chemical Synthesis of a Heterodimeric Interchain Bis-Lactam-Linked Peptide: Application to an Analogue of Human Insulin-Like Peptide 3” (International Journal of Peptides, 2013).
Numbered stars: 1 amine (or outer) side, 2 acyl side, 3 side chain; on linkers, the order of the positions; unused ones are H or OH. Bridge positions count the residues as written; N and C are the ends. Square brackets hold non-standard residues; d marks the D form. Ends that are not written are not given here. I, II: the chains in the order shown. βAsp = O=C(O)[C@H](CC(=O)[*:2])N[*:1]; Dap = NC[C@H](N)C(=O)O

Key:
RXFP2 [1] = molecular target: T1, RXFP2 (Homo sapiens, UniProt Q8WXD0); test: RXFP2 competition binding assay with europium-labelled INSL3; parameters: expressed in transfected cells; host or cells: HEK-293T; conditions: competition with 0.3 nM europium-labelled INSL3, unlabelled peptide 0.01 nM–1 μM; HEK-293T cells stably transfected with RXFP2; mean ± SEM; n in parentheses in Table 1 (6 for human INSL3, 3 for the analogues); read-out: Receptor binding pKi (converted)
T1 sequence (Q8WXD0 whole entry): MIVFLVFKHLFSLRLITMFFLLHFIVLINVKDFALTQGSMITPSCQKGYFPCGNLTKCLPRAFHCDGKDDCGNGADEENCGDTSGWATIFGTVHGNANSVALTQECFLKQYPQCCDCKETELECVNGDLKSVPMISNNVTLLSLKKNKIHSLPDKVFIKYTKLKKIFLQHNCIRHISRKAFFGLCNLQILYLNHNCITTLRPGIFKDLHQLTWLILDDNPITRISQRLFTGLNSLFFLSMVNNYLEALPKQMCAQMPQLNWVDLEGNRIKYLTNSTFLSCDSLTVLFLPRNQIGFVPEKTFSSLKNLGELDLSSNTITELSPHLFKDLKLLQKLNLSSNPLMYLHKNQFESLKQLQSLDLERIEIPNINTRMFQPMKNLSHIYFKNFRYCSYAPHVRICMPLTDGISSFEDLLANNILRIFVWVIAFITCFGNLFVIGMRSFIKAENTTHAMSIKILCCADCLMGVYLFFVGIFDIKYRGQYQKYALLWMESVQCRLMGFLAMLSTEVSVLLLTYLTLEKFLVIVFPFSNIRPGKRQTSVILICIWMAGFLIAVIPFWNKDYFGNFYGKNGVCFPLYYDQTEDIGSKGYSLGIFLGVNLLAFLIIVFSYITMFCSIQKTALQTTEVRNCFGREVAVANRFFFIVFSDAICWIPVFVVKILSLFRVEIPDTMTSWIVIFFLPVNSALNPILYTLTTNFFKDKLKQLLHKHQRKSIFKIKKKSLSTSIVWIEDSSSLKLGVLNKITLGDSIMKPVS

RXFP2 [2] = molecular target: T1, RXFP2; parameters: expressed in transfected cells; conditions: data for entry 2 taken from the reference; n = 3; ref [32]; cited from earlier work
Description: Table 1 Receptor binding affinities (pKi) of INSL3 and analogues. Data for entry 2 taken from reference. | column: Receptor binding pKi (n=) || Moreover, to date, there have been no reports of a chemical synthesis of a bis-lactam cross-linked heterodimeric peptide. Consequently, in this study, we undertook an examination of the feasibility of a total step-wise synthesis of, first, a monolactam A24-B22 analogue and, subsequently, a bis-lactam A11-B10/A24-B22 analogue of INSL3. Our novel strategy involved the continuous assembly of both the A- and B-chains, plus the lactam bridges on the same solid support, that is, without using preformed peptide fragments. In order to simplify assembly, the C-terminus of the A-chain was truncated at p ... || Both the ΔA25/26 human INSL3 monolactam A24-B22 and bis-lactam A11-B10/A24-B22 analogues were tested in the RXFP2 competition binding assay (Table 1).

Substance | Ki (RXFP2 [1]) | Receptor binding pKi (RXFP2 [2])
I: PTPEMREKLCGHHFVRALVRVCGGPRWSTEA / II: AAATNPARYCCLSGCTQQDLLTLCPY (disulfide I:10-II:11, I:22-II:24, II:10-II:15) [Human INSL3] | 0.575 nM | –
I: PTPEMREKLCGHHFVRALVRV[Dap]GGPRWSTEA / II: AAATNPARYCCLSGCTQQDLLTL[βAsp] (disulfide I:10-II:11, II:10-II:15; amide I:22-II:C) [ΔA25/26 human INSL3 mono-lactam A24-B22] | 4.47 nM | –
I: PTPEMREKL[Dap]GHHFVRALVRV[Dap]GGPRWSTEA / II: AAATNPARYCDLSGCTQQDLLTL[βAsp] (amide I:10-II:11, I:22-II:C; disulfide II:10-II:15) | 12 nM | –
ΔA25/26 human INSL3: INSL3 analogue, C-terminus of the A-chain truncated at position 24, omitting Pro A25 and Tyr A26 (chain 1 AAATNPARYCCLSGCTQQDLLTLC; chain 2 PTPEMREKLCGHHFVRALVRVCGGPRWSTEA; Disulfides A10-A15 (intra-A), A11-B10 and A24-B22 (interchain); A-chain is A1-A24 (Pro A25 and Tyr A26 omitted); B-chain is 31 residues ending in Ala; Ch) | – | 8.59 ± 0.06 (3)
